Laboratory results reported in patent publication US20260132132A1, “3A,4,5,6-TETRAHYDRO-1 H-PYRAZOLO[3,4-C]PYRIDIN-7(7AH)-ONE DERIVATIVES AS FACTOR XIIA INHIBITORS” (KALVISTA PHARMACEUTICALS LIMITED, priority 2022, published 2026).

The molecules below were run against T1, Human Factor XIIa (hFXIIa) (Homo sapiens, UniProt P00748) (assay: Determination of Human Factor XIIa (hFXIIa) inhibition, fluorogenic substrate IC50 assay). Conditions: fluorogenic substrate H-DPro-Phe-Arg-AFC at Km, 25° C., read-out: Human FXIIa IC50.
T1 construct: purchased Enzyme Research Laboratories
T1 sequence (P00748 373-615 limits assumed): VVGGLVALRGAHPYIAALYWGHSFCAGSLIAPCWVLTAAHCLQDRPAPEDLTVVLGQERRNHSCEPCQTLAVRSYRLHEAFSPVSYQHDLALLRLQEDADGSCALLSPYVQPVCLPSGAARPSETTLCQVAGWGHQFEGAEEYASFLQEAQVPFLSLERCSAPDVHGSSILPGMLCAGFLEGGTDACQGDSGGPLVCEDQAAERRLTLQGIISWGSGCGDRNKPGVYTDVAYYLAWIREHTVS
T1 sequence (P00748 20-372 partner limits assumed): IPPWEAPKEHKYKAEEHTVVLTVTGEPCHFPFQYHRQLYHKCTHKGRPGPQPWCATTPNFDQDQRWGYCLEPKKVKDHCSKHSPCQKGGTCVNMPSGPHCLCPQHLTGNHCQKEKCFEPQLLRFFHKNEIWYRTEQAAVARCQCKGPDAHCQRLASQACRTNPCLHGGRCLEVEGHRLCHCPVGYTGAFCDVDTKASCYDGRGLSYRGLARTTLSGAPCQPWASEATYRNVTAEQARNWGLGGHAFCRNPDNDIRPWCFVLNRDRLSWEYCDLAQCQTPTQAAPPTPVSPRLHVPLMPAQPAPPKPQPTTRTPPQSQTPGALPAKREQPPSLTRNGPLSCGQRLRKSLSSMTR
Type: biochemical
Experimental: Determination of Human Factor XIIa (hFXIIa) inhibition
The Km for the cleavage of the substrate by hFXIIa was determined by standard transformation of the Michaelis-Menten equation, with subsequent inhibition assays performed at substrate Km concentration.

IC50	Compound
300 to 1000 nM	O=C(NCC1CC1)c1nn(-c2cccc(Cl)c2)c2c1CCN(c1ccc3c(c1)CN(CC1CCCC1)CC3)C2=O [Example 1102, 1-(3-chlorophenyl)-6-(2-(cyclopentylmethyl)-1,2,3,4-tetrahydroisoquinolin-7-yl)-N-(cyclopropylmethyl)-7-oxo-4,5,6,7-tetrahydro-1H-pyrazolo[3,4-c]pyridine-3-carboxamide]
10000 to 40000 nM	CC(=O)N(C)c1cccc(N2CCc3c(C(=O)NCC4CC4)nn(-c4cccc(Cl)c4)c3C2=O)c1 [Example 1269, 1-(3-chlorophenyl)-N-(cyclopropylmethyl)-6-(3-(N-methylacetamido)phenyl)-7-oxo-4,5,6,7-tetrahydro-1H-pyrazolo[3,4-c]pyridine-3-carboxamide]
10 to 100 nM	CCOC(=O)c1nn(-c2cc(C)cc(CN)c2)c2c1CCN(c1ccc3c(c1)C(=O)N(C)CC3)C2=O [Example 2022, ethyl 1-(3-(aminomethyl)-5-methylphenyl)-6-(2-methyl-1-oxo-1,2,3,4-tetrahydroisoquinolin-7-yl)-7-oxo-4,5,6,7-tetrahydro-1H-pyrazolo[3,4-c]pyridine-3-carboxylate]
100 to 300 nM	Cc1cc(CNC(=O)c2nn(-c3cccc(Cl)c3)c3c2CCN(c2ccc4c(c2)C(=O)N(C2COC2)CC4)C3=O)nn1C [Example 1290, 1-(3-chlorophenyl)-N-((1,5-dimethyl-1H-pyrazol-3-yl)methyl)-6-(2-(oxetan-3-yl)-1-oxo-1,2,3,4-tetrahydroisoquinolin-7-yl)-7-oxo-4,5,6,7-tetrahydro-1H-pyrazolo[3,4-c]pyridine-3-carboxamide]
1000 to 3000 nM	CN1CCc2ncc(N3CCc4c(C(=O)NCC5CC5)nn(-c5cccc(Cl)c5)c4C3=O)cc2C1=O [Example 1301, 1-(3-chlorophenyl)-N-(cyclopropylmethyl)-6-(6-methyl-5-oxo-5,6,7,8-tetrahydro-1,6-naphthyridin-3-yl)-7-oxo-4,5,6,7-tetrahydro-1H-pyrazolo[3,4-c]pyridine-3-carboxamide]
300 to 1000 nM	O=C1CC[C@@H](CN2CCc3ccc(N4CCc5c(C(=O)NCC6CC6)nn(-c6cccc(Cl)c6)c5C4=O)cc3C2)N1 [Example 1124, (S)-1-(3-chlorophenyl)-N-(cyclopropylmethyl)-7-oxo-6-(2-((5-oxopyrrolidin-2-yl)methyl)-1,2,3,4-tetrahydroisoquinolin-7-yl)-4,5,6,7-tetrahydro-1H-pyrazolo[3,4-c]pyridine-3-carboxamide]
100 to 300 nM	O=C(NCC1CC1)c1nn(-c2cccc(Cl)c2)c2c1CCN(c1ccc3c(c1)C(=O)N(CCO)CCC3)C2=O [Example 1294, 1-(3-chlorophenyl)-N-(cyclopropylmethyl)-6-(2-(2-hydroxyethyl)-1-oxo-2,3,4,5-tetrahydro-1H-benzo[c]azepin-8-yl)-7-oxo-4,5,6,7-tetrahydro-1H-pyrazolo[3,4-c]pyridine-3-carboxamide]
100 to 300 nM	O=C(NCC1CC1)c1nn(-c2cccc(Cl)c2)c2c1CCN(c1ccc3c(c1)C(=O)N(CCO)CCO3)C2=O [Example 1289, 1-(3-chlorophenyl)-N-(cyclopropylmethyl)-6-(4-(2-hydroxyethyl)-5-oxo-2,3,4,5-tetrahydrobenzo[f][1,4]oxazepin-7-yl)-7-oxo-4,5,6,7-tetrahydro-1H-pyrazolo[3,4-c]pyridine-3-carboxamide]
300 to 1000 nM	CCOC(=O)c1nn(-c2cccc(C)n2)c2c1CCN(c1ccc3c(c1)C(=O)N(C)CC3)C2=O [Example 2023, ethyl 6-(2-methyl-1-oxo-1,2,3,4-tetrahydroisoquinolin-7-yl)-1-(6-methylpyridin-2-yl)-7-oxo-4,5,6,7-tetrahydro-1H-pyrazolo[3,4-c]pyridine-3-carboxylate]
3000 to 10000 nM	CN1CCc2ccc(N3CCc4c(C(=O)NCC5CC5)nn(-c5cc(Cl)ccn5)c4C3=O)cc2C1=O [Example 2016, 1-(4-chloropyridin-2-yl)-N-(cyclopropylmethyl)-6-(2-methyl-1-oxo-1,2,3,4-tetrahydroisoquinolin-7-yl)-7-oxo-4,5,6,7-tetrahydro-1H-pyrazolo[3,4-c]pyridine-3-carboxamide]
> 4000 nM	CCNC(=O)c1nn(-c2cnc(N)c(Cl)c2)c2c1CCN(c1ccc3c(c1)C(=O)N(C)CC3)C2=O [Example 2031, 1-(6-amino-5-chloropyridin-3-yl)-N-ethyl-6-(2-methyl-1-oxo-1,2,3,4-tetrahydroisoquinolin-7-yl)-7-oxo-4,5,6,7-tetrahydro-1H-pyrazolo[3,4-c]pyridine-3-carboxamide]
10000 to 40000 nM	CN1C(=O)C(C)(C)c2ccc(N3CCc4c(C(=O)NCC5CC5)nn(-c5cccc(Cl)c5)c4C3=O)cc21 [Example 1277, 1-(3-chlorophenyl)-N-(cyclopropylmethyl)-7-oxo-6-(1,3,3-trimethyl-2-oxoindolin-6-yl)-4,5,6,7-tetrahydro-1H-pyrazolo[3,4-c]pyridine-3-carboxamide]
100 to 300 nM	Cc1nc2c(C#N)nn(-c3cccc(Cl)c3)c2c(=O)n1-c1ccc2c(c1)CN(C)CC2 [Example 3002, 1-(3-Chlorophenyl)-5-methyl-6-(2-methyl-1,2,3,4-tetrahydroisoquinolin-7-yl)-7-oxo-6,7-dihydro-1H-pyrazolo[4,3-d]pyrimidine-3-carbonitrile]
100 to 300 nM	Cc1cn(C)nc1CNC(=O)c1nn(-c2cccc(Cl)c2)c2c1CCN(c1cccc(CN3CCCCC3)c1)C2=O [Example 1178, 1-(3-chlorophenyl)-N-((1,4-dimethyl-1H-pyrazol-3-yl)methyl)-7-oxo-6-(3-(piperidin-1-ylmethyl)phenyl)-4,5,6,7-tetrahydro-1H-pyrazolo[3,4-c]pyridine-3-carboxamide]
300 to 1000 nM	CN1CCc2ccc(N3CCc4c(C(=O)NCC56CCC(CO)(C5)O6)nn(-c5cccc(Cl)c5)c4C3=O)cc2C1=O (stereo not shown) [Example 1280, 1-(3-chlorophenyl)-N-((4-(hydroxymethyl)-5-oxabicyclo[2.1.1]hexan-1-yl)methyl)-6-(2-methyl-1-oxo-1,2,3,4-tetrahydroisoquinolin-7-yl)-7-oxo-4,5,6,7-tetrahydro-1H-pyrazolo[3,4-c]pyridine-3-carboxamide]
100 to 300 nM	O=C(NCc1cnccc1Cl)c1nn(-c2cccc(Cl)c2)c2c1CCN(c1cccc(CN3CCCCC3)c1)C2=O [Example 1174, 1-(3-chlorophenyl)-N-((4-chloropyridin-3-yl)methyl)-7-oxo-6-(3-(piperidin-1-ylmethyl)phenyl)-4,5,6,7-tetrahydro-1H-pyrazolo[3,4-c]pyridine-3-carboxamide]
300 to 1000 nM	CN1CCc2ccc(N3CCc4c(C(=O)NC5COCC5CO)nn(-c5cccc(Cl)c5)c4C3=O)cc2C1=O (stereo not shown) [Example 1251, 1-(3-chlorophenyl)-N-(4-(hydroxymethyl)tetrahydrofuran-3-yl)-6-(2-methyl-1-oxo-1,2,3,4-tetrahydroisoquinolin-7-yl)-7-oxo-4,5,6,7-tetrahydro-1H-pyrazolo[3,4-c]pyridine-3-carboxamide]
100 to 300 nM	C[C@H](O)CN1CCc2ccc(N3CCc4c(C(=O)NCC5CC5)nn(-c5cccc(Cl)c5)c4C3=O)cc2C1 [Example 1070, (S)-1-(3-chlorophenyl)-N-(cyclopropylmethyl)-6-(2-(2-hydroxypropyl)-1,2,3,4-tetrahydroisoquinolin-7-yl)-7-oxo-4,5,6,7-tetrahydro-1H-pyrazolo[3,4-c]pyridine-3-carboxamide]
10 to 100 nM	Cc1cc(CNC(=O)c2nn(-c3cccc(Cl)c3)c3c2CCN(c2cccc(CN4CCCCC4)c2)C3=O)[nH]n1 [Example 1168, 1-(3-chlorophenyl)-N-((3-methyl-1H-pyrazol-5-yl)methyl)-7-oxo-6-(3-(piperidin-1-ylmethyl)phenyl)-4,5,6,7-tetrahydro-1H-pyrazolo[3,4-c]pyridine-3-carboxamide]
100 to 300 nM	O=C(NCC1CC1)c1nn(-c2cccc(Cl)c2)c2c1CCN(c1ccc3c(c1)CN(CCCF)CC3)C2=O [Example 1080, 1-(3-chlorophenyl)-N-(cyclopropylmethyl)-6-(2-(3-fluoropropyl)-1,2,3,4-tetrahydroisoquinolin-7-yl)-7-oxo-4,5,6,7-tetrahydro-1H-pyrazolo[3,4-c]pyridine-3-carboxamide]
10 to 100 nM	CCN1CCc2ccc(N3CCc4c(C(=O)NCc5cc(C)n(C)n5)nn(-c5cccc(Cl)c5)c4C3=O)cc2C1=O [Example 1219, 1-(3-chlorophenyl)-N-((1,5-dimethyl-1H-pyrazol-3-yl)methyl)-6-(2-ethyl-1-oxo-1,2,3,4-tetrahydroisoquinolin-7-yl)-7-oxo-4,5,6,7-tetrahydro-1H-pyrazolo[3,4-c]pyridine-3-carboxamide]
300 to 1000 nM	CCNC(=O)c1nn(-c2cccc(Cl)c2)c2c1CCN(c1ccc3c(c1)C(=O)N(C)CC3)C2=O [Example 1297, 1-(3-chlorophenyl)-N-ethyl-6-(2-methyl-1-oxo-1,2,3,4-tetrahydroisoquinolin-7-yl)-7-oxo-4,5,6,7-tetrahydro-1H-pyrazolo[3,4-c]pyridine-3-carboxamide]
